How the values were obtained:
aldose reductase [1] = settings: Dvornik et al. 1973; Peterson et al. 1979; cited from earlier work
aldose reductase [2] = molecular target: T1, aldose reductase (Bos taurus, UniProt P16116); assay: in vitro aldose reductase inhibition (modified Hayman and Kinoshita procedure, enzyme from bovine lens); type: biochemical; settings: for inhibition at 10 µM: 10^-5 molar, read-out: % Inhibition at Different Molar Concentrations (in vitro), 10^-5; for inhibition at 1 µM: 10^-6 molar, read-out: % Inhibition at Different Molar Concentrations (in vitro), 10^-6; for inhibition at 0.1 µM: 10^-7 molar, read-out: % Inhibition at Different Molar Concentrations (in vitro), 10^-7
T1 construct: preparation of the enzyme from bovine lens; from tissue; host or cells: bovine lens
Protocol: In the present case the procedure of Hayman and Kinoshita is modified in that the final chromatography step is omitted in the preparation of the enzyme from bovine lens.
The following results were obtained when the foregoing listed compounds of formula I were evaluated in the above in vitro test.

[3] = hygroscopicity of analytical sample; type: physicochemical; settings: analytical sample dried under reduced pressure at 140° C.
Protocol: 3-(Ethoxycarbonyl)-4,7-dihydro-6-methoxy-4,7-dioxo-1H-cyclohepta[b]pyridine-1-acetic acid ethyl ester (2.5 g), described in example 5, was heated at reflux in 15% (w/v) aqueous HCl for 2 hr. The resulting precipitate was collected, washed with water and acetone, and recrystallized from water to give 1.8 g of the title compound; mp 272°-274° C.; nmr (DMSO-d6) δ3.95 (s, 3H), 5.5 (s, 2H), 7.28 & 7.75 (2d, 2H), 7.95 (s, 1H), 9.0 (1H, s); ir (Nujol*) 2900, 1700, 1565, 1265, 1165 cm^-1; uv λmax (MeOH) 347 nm (ε11,630), 306 (10,470), 266 (21,365), 249 (32,290). An analytical sample dried under reduced pressure at 140° C. was hygroscopic; Anal Calcd for C14 H11 NO7 : C, 55.09% H, 3.63% N, 4.59%; Found: C, 54.41% H, 3.60% N, 4.55%.

| inhibition at 10 µM (aldose reductase [2]) | inhibition at 1 µM (aldose reductase [2]) | inhibition at 0.1 µM (aldose reductase [2]) | hygroscopicity [3] | Structure (SMILES) | aldose reductase inhibition reported in the literature, in words (aldose reductase [1]) |
| --- | --- | --- | --- | --- | --- |
| 97% | 88% | 31% | – | O=C(O)COc1cc2c(=O)c(C(=O)O)cn(CC(=O)O)c2ccc1=O [Example 7 (R^3 = OCH2 COOH), 3-carboxy-6-[(carboxymethyl)oxy]-4,7-dihydro-4,7-dioxo-1H-cyclohepta[b]pyridine-1-acetic acid monohydrate] | – |
| 88% | 79% | 37% | – | O=C(O)Cn1cc(C(=O)O)c(=O)c2cc(OCc3ccccc3)c(=O)ccc21 [Example 8, 6-Benzyloxy-3-carboxy-4,7-dihydro-4,7-dioxo-1H-cyclohepta[b]pyridine-1-acetic Acid] | – |

The next lines start with the compound.

| Structure (SMILES) | inhibition at 10 µM (aldose reductase [2]) | inhibition at 1 µM (aldose reductase [2]) | inhibition at 0.1 µM (aldose reductase [2]) | hygroscopicity [3] | aldose reductase inhibition reported in the literature, in words (aldose reductase [1]) |
| --- | --- | --- | --- | --- | --- |
| O=C(O)CN1C(=O)c2cccc3cccc(c23)C1=O [1,3-Dioxo-1H-benz[de]isoquinoline-2(3H)-acetic acid] | – | – | – | – | effective inhibitor of aldose reductase |
| CCOC(=O)COc1cc2c(=O)c(C(=O)OCC)cn(CC(=O)OCC)c2ccc1=O [Example 5 (R^3 = OCH2 COOC2 H5), 3-(ethoxycarbonyl)-6-[(2-ethoxy-2-oxoethyl)oxy]-4,7-dihydro-4,7-dioxo-1H-cyclohepta[b]pyridine-1-acetic acid ethyl ester] | 40% | – | – | – | – |
| COc1cc2c(=O)c(C(=O)O)cn(CC(=O)O)c2ccc1=O [Example 7 (R^3 = OCH3), 3-Carboxy-4,7-dihydro-6-methoxy-4,7-dioxo-1H-cyclohepta[b]pyridine-1-aceticAcid] | 89% | 79% | 30% | hygroscopic | – |
| O=C1NC(=O)[C@@]2(CCOc3ccc(F)cc32)N1 [sorbinil, (S)-6-Fluoro-2,3-dihydrospiro(4H-1-benzopyran-4,4'-imidazolidine)-2',5'-dione] | – | – | – | – | aldose reductase inhibiting properties |

Reference: patent US4382088A, “4,7-Dihydro-4,7-dioxi-1H-cyclohepta[b]pyridine derivatives” (Ayerst, McKenna & Harrison, Inc., priority 1981, dated 1983)
